Laboratory results: patent US20120065126A1, “Pharmaceutical Compositions Containing Antifungal Peptides” (BASF SE, priority 2009, published 2012)

Assays:
Malassezia furfur = test: Incubation times between 5 minutes and 1 hour (CFU); assay type: cell-based
Description: The studies described hereinafter were conducted on the Malassezia furfur strain DSM 6170.
For this purpose, the concentrations 100 μM, 200 μM and 500 μM of P18 peptide and of zinc pyrithione as a control substance were used in the experiment. The experiments were conducted as follows:
The growth test was effected as follows: a shake culture containing M472 Pityrosporum medium was inoculated with M. furfur and incubated with shaking at 30° C. and 200 rpm overnight.
A 96-well microtiter plate was filled with 100 μl per well of M472 Pityrosporum medium and inoculated with M. furfur suspension from the overnight culture. The M. furfur suspension was adjusted at the start of the experiment to an optical density, measured at 600 nm, of 0.1.
The following growth was compared: • M. furfur suspension and addition of P18 peptide with a final concentration of 100 μM, plating after 5 minutes, 10 minutes, 20 minutes and 60 minutes • M. furfur suspension and addition of P18 peptide with a final concentration of 200 μM, plating after 5 minutes, 10 minutes, 20 minutes and 60 minutes • M. furfur suspension and addition of P18 peptide with a final concentration of 500 μM, plating after 5 minutes, 10 minutes, 20 minutes and 60 minutes • M. furfur suspension and addition of zinc pyrithione with a final concentration of 100 μM, plating after 5 minutes, 10 minutes, 20 minutes and 60 minutes • M. furfur suspension and addition of zinc pyrithione with a final concentration of 200 μM, plating after 5 minutes, 10 minutes, 20 minutes and 60 minutes • M. furfur suspension and addition of zinc pyrithione with a final concentration of 500 μM, plating after 5 minutes, 10 minutes, 20 minutes and 60 minutes
The microtiter plate was incubated with shaking at 30°.
After the incubation times specified, the colony forming units (CFU) were determined by streaking 50 μl of each of the suspensions and, after incubation over the course of 6 days, counting the colonies. The CFU was determined in order to rule out any influence of the biphasic medium, and also the growth form of M. furfur, on the optical density. The experiments were repeated independently of one another.

[1] = system: Candida albicans (DSM 11948); test: Short-term effect (CFU); assay type: cell-based
Description: For this purpose, the procedure was as follows.
YM growth medium (Becton, Dickinson and Company, Sparks, USA) 3 g of yeast extract 3 g of malt extract 5 g of peptone 10 g of dextrose make up to 1 liter, set pH 6.2
The growth test was effected as follows: 5 ml of YM medium were inoculated with C. albicans and incubated at 30° C. and 200 rpm overnight.
1.5 ml reaction vessels were filled with 1 ml each of YM medium and inoculated with the C. albicans suspension of the overnight culture. The resulting C. albicans suspension was set at the start of the experiment to an optical density, measured at 600 nm, of 0.1. The concentration of the peptide solution in water or ZPT solution (zinc pyrithione, >96%, Sigma Aldrich) dissolved in DMSO was 2% (w/w).
The following growth was compared: • C. albicans suspension and addition of P18 peptide with a final concentration in the 1.5 ml reaction vessel of 50 ppm after 5 minutes, 10 minutes, 20 minutes and 60 minutes • C. albicans suspension and addition of P18 peptide with a final concentration in the 1.5 ml reaction vessel of 100 ppm after 5 minutes, 10 minutes, 20 minutes and 60 minutes • C. albicans suspension and addition of P18 peptide with a final concentration in the 1.5 ml reaction vessel of 200 ppm after 5 minutes, 10 minutes, 20 minutes and 60 minutes • C. albicans suspension and addition of P18 peptide with a final concentration in the 1.5 ml reaction vessel of 500 ppm after 5 minutes, 10 minutes, 20 minutes and 60 minutes • C. albicans suspension and addition of P18 peptide with a final concentration in the 1.5 ml reaction vessel of 1000 ppm after 5 minutes, 10 minutes, 20 minutes and 60 minutes • C. albicans suspension and addition of ZPT with a final concentration in the 1.5 ml reaction vessel of 50 ppm after 5 minutes, 10 minutes, 20 minutes and 60 minutes • C. albicans suspension and addition of ZPT with a final concentration in the 1.5 ml reaction vessel of 100 ppm after 5 minutes, 10 minutes, 20 minutes and 60 minutes • C. albicans suspension and addition of ZPT with a final concentration in the 1.5 ml reaction vessel of 200 ppm after 5 minutes, 10 minutes, 20 minutes and 60 minutes • C. albicans suspension and addition of ZPT with a final concentration in the 1.5 ml reaction vessel of 500 ppm after 5 minutes, 10 minutes, 20 minutes and 60 minutes • C. albicans suspension and addition of ZPT with a final concentration in the 1.5 ml reaction vessel of 1000 ppm after 5 minutes, 10 minutes, 20 minutes and 60 minutes
The 1.5 ml reaction vessels were incubated at room temperature.
After the incubation times specified, the colony forming units (CFU) were determined by streaking 1 μl of each of the suspensions diluted in 20 μl of YM medium and, after incubation for 2 days, counting the colonies.

Substance | Colony forming units after incubation time specified (Malassezia furfur; 100 μM, 5 minutes) [CFU] | Colony forming units after incubation time specified (Malassezia furfur; 100 μM, 10 minutes) [CFU] | Colony forming units after incubation time specified (Malassezia furfur; 100 μM, 20 minutes) [CFU] | Colony forming units after incubation time specified (Malassezia furfur; 100 μM, 60 minutes) [CFU] | Colony forming units after incubation time specified (Malassezia furfur; 200 μM, 5 minutes) [CFU] | Colony forming units after incubation time specified (Malassezia furfur; 200 μM, 10 minutes) [CFU] | Colony forming units after incubation time specified (Malassezia furfur; 200 μM, 20 minutes) [CFU] | Colony forming units after incubation time specified (Malassezia furfur; 200 μM, 60 minutes) [CFU] | Colony forming units after incubation time specified (Malassezia furfur; 500 μM, 5 minutes) [CFU] | Colony forming units after incubation time specified (Malassezia furfur; 500 μM, 10 minutes) [CFU] | Colony forming units after incubation time specified (Malassezia furfur; 500 μM, 20 minutes) [CFU] | Colony forming units after incubation time specified (Malassezia furfur; 500 μM, 60 minutes) [CFU] | Colony forming units after the incubation time specified ([1]; 50 ppm, 5 minutes) [CFU] | Colony forming units after the incubation time specified ([1]; 50 ppm, 10 minutes) [CFU] | Colony forming units after the incubation time specified ([1]; 50 ppm, 20 minutes) [CFU] | Colony forming units after the incubation time specified ([1]; 50 ppm, 60 minutes) [CFU] | Colony forming units after the incubation time specified ([1]; 100 ppm, 5 minutes) [CFU] | Colony forming units after the incubation time specified ([1]; 100 ppm, 10 minutes) [CFU] | Colony forming units after the incubation time specified ([1]; 100 ppm, 20 minutes) [CFU] | Colony forming units after the incubation time specified ([1]; 100 ppm, 60 minutes) [CFU] | also measured
H-KWKLFKKIPKFLHLAKKF-NH2 [P18, H-KWKLFKKIPKFLHLAKKF-NH2] | >1000 | >1000 | 604 | 149 ± 60 | >1000 | >1000 | >1000 | 52 ± 16 | >1000 | 398 ± 290 | 26 ± 6 | 1 ± 1 | 986 ± 280 | 944 ± 209 | 954 ± 14 | 518 ± 82 | 718 ± 116 | 628 ± 112 | 454 ± 127 | 25 ± 0 | Colony forming units after the incubation time specified ([1]; 200 ppm, 5 minutes): 242 ± 122 CFU; Colony forming units after the incubation time specified ([1]; 200 ppm, 10 minutes): 72 ± 2 CFU; Colony forming units after the incubation time specified ([1]; 200 ppm, 20 minutes): 29 ± 2 CFU; Colony forming units after the incubation time specified ([1]; 200 ppm, 60 minutes): 1 ± 1 CFU; Colony forming units after the incubation time specified ([1]; 500 ppm, 5 minutes): 39 ± 1 CFU; Colony forming units after the incubation time specified ([1]; 500 ppm, 10 minutes): 5 ± 6 CFU; Colony forming units after the incubation time specified ([1]; 500 ppm, 20 minutes): 1 ± 1 CFU; Colony forming units after the incubation time specified ([1]; 500 ppm, 60 minutes): 0 ± 0 CFU; Colony forming units after the incubation time specified ([1]; 1000 ppm, 5 minutes): 10 ± 2 CFU; Colony forming units after the incubation time specified ([1]; 1000 ppm, 10 minutes): 1 ± 2 CFU; Colony forming units after the incubation time specified ([1]; 1000 ppm, 20 minutes): 0 ± 0 CFU; Colony forming units after the incubation time specified ([1]; 1000 ppm, 60 minutes): 0 ± 0 CFU
zinc pyrithione [ZPT] | >1000 | >1000 | >1000 | >1000 | >1000 | >1000 | >1000 | >1000 | >1000 | >1000 | >1000 | >1000 | 830 ± 190 | 1096 ± 51 | 986 ± 20 | 982 ± 93 | 809 ± 100 | 1048 ± 74 | 806 ± 105 | 762 ± 212 | Inhibition in words ([1]; 50-1000 ppm, up to 60 minutes): no significant inhibition; Colony forming units after the incubation time specified ([1]; 200 ppm, 5 minutes): 676 ± 204 CFU; Colony forming units after the incubation time specified ([1]; 200 ppm, 10 minutes): 906 ± 331 CFU; Colony forming units after the incubation time specified ([1]; 200 ppm, 20 minutes): 882 ± 190 CFU; Colony forming units after the incubation time specified ([1]; 200 ppm, 60 minutes): 711 ± 125 CFU; Colony forming units after the incubation time specified ([1]; 500 ppm, 5 minutes): 863 ± 35 CFU; Colony forming units after the incubation time specified ([1]; 500 ppm, 10 minutes): 832 ± 192 CFU; Colony forming units after the incubation time specified ([1]; 500 ppm, 20 minutes): 710 ± 71 CFU; Colony forming units after the incubation time specified ([1]; 500 ppm, 60 minutes): 617 ± 134 CFU; Colony forming units after the incubation time specified ([1]; 1000 ppm, 5 minutes): 806 ± 20 CFU; Colony forming units after the incubation time specified ([1]; 1000 ppm, 10 minutes): 700 ± 153 CFU; Colony forming units after the incubation time specified ([1]; 1000 ppm, 20 minutes): 550 ± 88 CFU; Colony forming units after the incubation time specified ([1]; 1000 ppm, 60 minutes): 482 ± 69 CFU
